≈ marks a conversion by molar mass, not a printed value. Like-named read-outs stand apart in the source and are kept apart here.
Columns and labels:
[1] = system: HIV-1 (IIIB); assay: microbe, parasite or virus in culture; format: cell-based
[2] = in vitro; details: human; for CC50 at 5 days: uninfected MT-4 cells
[3] = physchem; details: 23 °C, thermodynamic from solid; for solubility thermodynamic at 24 h: FaSSIF; for solubility thermodynamic: fassif
[4] = Human immunodeficiency virus 1, MT4, 120 h, HIV-1 (IIIB) replication in MT-4 cells, 5 days incubation, Cell Titer Glo, read-out: MT4 EC50
[5] = Human immunodeficiency virus 1, IIIB, MT4, 120 h, read-out: MT4 EC50 (nM)

SMILES | EC50 [1, 4] | solubility thermodynamic at 24 h [3] | CC50 at 5 days [2] | EC50 [1, 5] | CC50 [2] | solubility thermodynamic [3]
CC1=NO[C@@]2(CC[C@H](C)N3C[C@H]2n2cc(C(=O)NCc4ccc(F)cc4F)c(=O)c(OC(=O)N(C)c4ncccc4CN(CC(=O)OCc4ccccc4)C(=O)OCOP(=O)(O)O)c2C3=O)C1 [Compound 33, benzyl N-((2-(((((3′S,5S,7′R)-10′-((2,4-difluorobenzyl)carbamoyl)-3,3′-dimethyl-1′,11′-dioxo-1′,4′,5′,11′-tetrahydro-3′H,4H,7′H-spiro[isoxazole-5,6′-[2,7]methanopyrido[1,2-a][1,4]diazonin]-12′-yl)oxy)carbonyl)(methyl)amino)pyridin-3-yl)methyl)-N-(((phosphonooxy)methoxy)carbonyl)glycinate] | – | – | – | 2.34 nM | 12900 nM | 4170 µg/mL (≈ 4.38 mM)
CC1=NO[C@@]2(CC[C@H](C)N3C[C@H]2n2cc(C(=O)NCc4ccc(F)cc4F)c(=O)c(OC(=O)CC(C)(C)c4c(C)cc(C)cc4OP(=O)(O)O)c2C3=O)C1 [Compound 26, (3′S,5S,7′R)-10′-((2,4-difluorobenzyl)carbamoyl)-3,3′-dimethyl-1′,11′-dioxo-1′,4′,5′,11′-tetrahydro-3′H,4H,7′H-spiro[isoxazole-5,6′-[2,7]methanopyrido[1,2-a][1,4]diazonin]-12′-yl 3-(2,4-dimethyl-6-(phosphonooxy)phenyl)-3-methylbutanoate] | – | – | – | 1.13 nM | 12200 nM | 4300 µg/mL (≈ 5.57 mM)
CC1=NO[C@@]2(CC[C@H](C)N3C[C@H]2n2cc(C(=O)NCc4ccc(F)cc4F)c(=O)c(OCOC(=O)OCc4ccncc4OP(=O)(O)O)c2C3=O)C1 [Compound 72, (((3′S,5S,7′R)-10′-((2,4-difluorobenzyl)carbamoyl)-3,3′-dimethyl-1′,11′-dioxo-1′,4′,5′,11′-tetrahydro-3′H,4H,7′H-spiro[isoxazole-5,6′-[2,7]methanopyrido[1,2-a][1,4]diazonin]-12′-yl)oxy)methyl ((3-(phosphonooxy)pyridin-4-yl)methyl) carbonate] | – | – | – | 1.34 nM | 11200 nM | 2560 µg/mL (≈ 3.42 mM)
COC1=NO[C@@]2(CC[C@H](C)N3C[C@H]2n2cc(C(=O)NCc4ccc(F)cc4F)c(=O)c(OCOC(=O)N(C)c4ncccc4COP(=O)(O)O)c2C3=O)C1 [Compound 3, (((3′S,5S,7′R)-10′-((2,4-difluorobenzyl)carbamoyl)-3-methoxy-3′-methyl-1′,11′-dioxo-1′,4′,5′,11′-tetrahydro-3′H,4H,7′H-spiro[isoxazole-5,6′-[2,7]methanopyrido[1,2-a][1,4]diazonin]-12′-yl)oxy)methylmethyl(3-((phosphonooxy)methyl)pyridin-2-yl)carbamate] | 2.15 nM | 5410 µg/mL (≈ 6.97 mM) | 12600 nM | – | – | –
COC1=NO[C@@]2(CC[C@H](C)N3C[C@H]2n2cc(C(=O)NCc4ccc(F)cc4F)c(=O)c(OC(=O)N(C)c4ncccc4CN(CC(=O)O)C(=O)OCOP(=O)(O)O)c2C3=O)C1 [Compound 59, N-((2-(((((3′S,5S,7′R)-10′-((2,4-difluorobenzyl)carbamoyl)-3-methoxy-3′-methyl-1′,11′-dioxo-1′,4′,5′,11′-tetrahydro-3′H,4H,7′H-spiro[isoxazole-5,6′-[2,7]methanopyrido[1,2-a][1,4]diazonin]-12′-yl)oxy)carbonyl)(methyl)amino)pyridin-3-yl)methyl)-N-(((phosphonooxy)methoxy)carbonyl)glycine] | – | – | – | 1.2 nM | 10600 nM | 5280 µg/mL (≈ 6.01 mM)
CC1=NO[C@@]2(CC[C@H](C)N3C[C@H]2n2cc(C(=O)NCc4ccc(F)cc4F)c(=O)c(OCOC(=O)CC(C)(C)c4c(CC(=O)N[C@@H](CC(=O)O)C(=O)O)cc(C)cc4OP(=O)(O)O)c2C3=O)C1 [Compound 43, (2-(2-(4-((((3′S,5S,7′R)-10′-((2,4-difluorobenzyl)carbamoyl)-3,3′-dimethyl-1′,11′-dioxo-1′,4′,5′,11′-tetrahydro-3′H,4H,7′H-spiro[isoxazole-5,6′-[2,7]methanopyrido[1,2-a][1,4]diazonin]-12′-yl)oxy)methoxy)-2-methyl-4-oxobutan-2-yl)-5-methyl-3-(phosphonooxy)phenyl)acetyl)-L-aspartic acid] | – | – | – | 2.64 nM | 30700 nM | 5280 µg/mL (≈ 5.5 mM)
CC1=NO[C@@]2(CC[C@H](C)N3C[C@H]2n2cc(C(=O)NCc4ccc(F)cc4F)c(=O)c(OCc4ccncc4OP(=O)(O)O)c2C3=O)C1 [Compound 70, 4-((((3′S,5S,7′R)-10′-((2,4-difluorobenzyl)carbamoyl)-3,3′-dimethyl-1′,11′-dioxo-1′,4′,5′,11′-tetrahydro-3′H,4H,7′H-spiro[isoxazole-5,6′-[2,7]methanopyrido[1,2-a][1,4]diazonin]-12′-yl)oxy)methyl)pyridin-3-yl dihydrogen phosphate] | – | – | – | 1.63 nM | 10200 nM | 2460 µg/mL
CC1=NO[C@@]2(CC[C@H](C)N3C[C@H]2n2cc(C(=O)NCc4ccc(F)cc4F)c(=O)c(OCOC(=O)OCCC(C)(C)c4c(CC(=O)O)cc(C)cc4OP(=O)(O)O)c2C3=O)C1 [Compound 23, 2-(2-(4-((((((3′S,5S,7′R)-10′-((2,4-difluorobenzyl)carbamoyl)-3,3′-dimethyl-1′,11′-dioxo-1′,4′,5′,11′-tetrahydro-3′H,4H,7′H-spiro[isoxazole-5,6′-[2,7]methanopyrido[1,2-a][1,4]diazonin]-12′-yl)oxy)methoxy)carbonyl)oxy)-2-methylbutan-2-yl)-5-methyl-3-(phosphonooxy)phenyl)acetic acid] | – | – | – | 2.11 nM | 14600 nM | 4750 µg/mL (≈ 5.43 mM)

The next lines start with results.

EC50 [1, 4] | solubility thermodynamic at 24 h [3] | SMILES | CC50 at 5 days [2] | EC50 [1, 5] | CC50 [2] | solubility thermodynamic [3]
2 nM | 4400 µg/mL (≈ 5.95 mM) | CC1=NO[C@@]2(CC[C@H](C)N3C[C@H]2n2cc(C(=O)NCc4ccc(F)cc4F)c(=O)c(OCOC(=O)O[C@H]4CCCC[C@H]4OP(=O)(O)O)c2C3=O)C1 [Compound 51, (((3′S,5S,7′R)-10′-((2,4-difluorobenzyl)carbamoyl)-3,3′-dimethyl-1′,11′-dioxo-1′,4′,5′,11′-tetrahydro-3′H,4H,7′H-spiro[isoxazole-5,6′-[2,7]methanopyrido[1,2-a][1,4]diazonin]-12′-yl)oxy)methyl ((1S,2R)-2-(phosphonooxy)cyclohexyl) carbonate] | 21200 nM | – | – | –
2.5 nM | 5520 µg/mL (≈ 7.05 mM) | CC1=NO[C@@]2(CC[C@H](C)N3C[C@H]2n2cc(C(=O)NCc4ccc(F)cc4F)c(=O)c(OCOC(=O)OCC4(COP(=O)(O)O)COC(=O)N4C)c2C3=O)C1 (stereo partly drawn) [Compound 55, (((3′S,5S,7′R)-10′-((2,4-difluorobenzyl)carbamoyl)-3,3′-dimethyl-1′,11′-dioxo-1′,4′,5′,11′-tetrahydro-3′H,4H,7′H-spiro[isoxazole-5,6′-[2,7]methanopyrido[1,2-a][1,4]diazonin]-12′-yl)oxy)methyl ((3-methyl-2-oxo-4-((phosphonooxy)methyl)oxazolidin-4-yl)methyl) carbonate] | 12900 nM | – | – | –
4.33 nM | 2700 µg/mL (≈ 3.47 mM) | CC1=NO[C@@]2(CC[C@H](C)N3C[C@H]2n2cc(C(=O)NCc4ccc(F)cc4F)c(=O)c(OCOC(=O)N(C)c4ncccc4COC(=O)[C@@H](N)C(C)C)c2C3=O)C1 [Compound 12, (2-((((((3′S,5S,7′R)-10′-((2,4-difluorobenzyl)carbamoyl)-3,3′-dimethyl-1′,11′-dioxo-1′,4′,5′,11′-tetrahydro-3′H,4H,7′H-spiro[isoxazole-5,6′-[2,7]methanopyrido[1,2-a][1,4]diazonin]-12′-yl)oxy)methoxy)carbonyl)(methyl)amino)pyridin-3-yl)methyl L-valinate] | 14600 nM | – | – | –
2.4 nM | 3560 µg/mL (≈ 4.81 mM) | CC1=NO[C@@]2(CC[C@H](C)N3C[C@H]2n2cc(C(=O)NCc4ccc(F)cc4F)c(=O)c(OCOC(=O)OCC4(COP(=O)(O)O)COC4)c2C3=O)C1 [Compound 56, (((3′S,5S,7′R)-10′-((2,4-difluorobenzyl)carbamoyl)-3,3′-dimethyl-1′,11′-dioxo-1′,4′,5′,11′-tetrahydro-3′H,4H,7′H-spiro[isoxazole-5,6′-[2,7]methanopyrido[1,2-a][1,4]diazonin]-12′-yl)oxy)methyl ((3-((phosphonooxy)methyl)oxetan-3-yl)methyl) carbonate] | 12800 nM | – | – | –
1.73 nM | 5320 µg/mL (≈ 7.21 mM) | CC1=NO[C@@]2(CC[C@H](C)N3C[C@H]2n2cc(C(=O)NCc4ccc(F)cc4F)c(=O)c(OCOC(=O)O[C@@H]4CCCC[C@H]4OP(=O)(O)O)c2C3=O)C1 [Compound 45, (((3′S,5S,7′R)-10′-((2,4-difluorobenzyl)carbamoyl)-3,3′-dimethyl-1′,11′-dioxo-1′,4′,5′,11′-tetrahydro-3′H,4H,7′H-spiro[isoxazole-5,6′-[2,7]methanopyrido[1,2-a][1,4]diazonin]-12′-yl)oxy)methyl ((1R,2R)-2-(phosphonooxy)cyclohexyl) carbonate] | 11400 nM | – | – | –
3.2 nM | 19 µg/mL (≈ 0.0229 mM) | CCCCCCCCCCCCCC(=O)Nc1ccc(CC(=O)Oc2c3n(cc(C(=O)NCc4ccc(F)cc4F)c2=O)[C@@H]2CN(C3=O)[C@@H](C)CC[C@]23CC(C)=NO3)cc1 [Compound 94, (3′S,5S,7′R)-10′-((2,4-difluorobenzyl)carbamoyl)-3,3′-dimethyl-1′,11′-dioxo-1′,4′,5′,11′-tetrahydro-3′H,4H,7′H-spiro[isoxazole-5,6′-[2,7]methanopyrido[1,2-a][1,4]diazonin]-12′-yl 2-(4-tetradecanamidophenyl)acetate] | ≥ 50000 nM | – | – | –

From patent publication US20250127801A1, “BRIDGED TRICYCLIC CARBAMOYLPYRIDONE COMPOUNDS AND USES THEREOF” (priority 2023, published 2025)
